Results: patent US20250242030A1, “COMPOSITIONS COMPRISING A NON-BIOABSORBABLE POLYMER AND METABOLIC INHIBITOR” (Board of Trustees of Michigan State University, priority 2022, published 2025)

Key:
Assay type in all cases: cell-based, mouse
MEFs [1] = assay: Crystal violet cell viability assay in MEFs; conditions: MEFs treated with metabolic inhibitors; data not shown
Description: (§1) BMDMs derived from C57BL/6J mice (Jackson Laboratories) of 3-4 months were used. Mouse embryonic fibroblasts (NIH 3T3 cells, hereafter “MEFs”) were stably transfected with a Sleeping Beauty transposon plasmid (pLuBIG) having a bidirectional promoter driving an improved firefly luciferase gene (fLuc) and a fusion gene encoding a Blasticidin-resistance marker (BsdR) linked to eGFP (BGL). For temporal (IVIS) experiments lasting 12 days, 5,000 BGL cells were initially seeded in each well of a 96-well tissue culture plate in 200 μL if complete medium. For ATP, crystal violate, and Seahorse assays, 20,000 wild-type MEFs were seeded. For ATP, crystal violate, and cytokine/chemokine assays, 50,000 BMDMs were seeded. 60,000 BMDMs were seeded for the Seahorse assays. For IVIS experiments with glycolytic inhibitors, 20,000 BGL cells were initially seeded. Complete medium comprised DMEM medium, 10% heat inactivated fetal bovine serum (FBS), and 100 U/mL penicillin/streptomycin (all from ThermoFisher Scientific).
(§2) Cell viability was measured using the crystal violet staining assay at room temperature. 50 μL media containing cells is incubated with 150 μL of 99.9% methanol for 15 minutes. […] Absorbance (optical density) was acquired at 570 nm using the SpectraMax M3 Spectrophotometer (Molecular Devices) and SoftMax Pro software (ver. 7.0.2).

BMDMs [2] = assay: Crystal violet cell viability assay in BMDMs; conditions: BMDMs treated with metabolic inhibitors; data not shown
Description: as §1, §2

BMDMs [3] = assay: Cytokine and chemokine multiplex assay in BMDM supernatants
Description: as §1
Cytokine and chemokine levels were measured using a MILLIPLEX MAP mouse magnetic bead multiplex kit (MilliporeSigma) to assess for IL-6, MCP-1, TNF-α, IL-1β, IL-4, IL-10, IFN-γ, and 1L-13 protein expression in supernatants. Data was acquired using Luminex 200 (Luminex Corporation) by the xPONENT software (Version 3.1, Luminex Corporation). […] Values exceeding the dynamic range of the assay, in accordance with manufacturer's instruction, were excluded. Additionally, IL-6 ELISA kits (RayBiotech) for supernatants were used according to manufacturer's instructions.

BMDMs [4] = assay: Seahorse assay (ECAR, PER, OCR) in BMDMs; conditions: PE-exposed BMDMs in presence of inhibitor
Description: as §1
To determine the metabolic pathways responsible for the observed bioenergetic changes, Seahorse assays were used to measure oxygen consumption rate (OCR), extracellular acidification rate (ECAR) and lactate-linked proton efflux rate (PER) in a customized medium (pH 7.4). Basal measurements of OCR, ECAR, and PER were obtained in real time using the Seahorse XFe-96 Extracellular Flux Analyzer (Agilent Technologies). Prior to running the assay, cell culture medium was washed with and replaced by the Seahorse XF DMEM medium (pH 7.4) supplemented with 25 mM D-glucose and 4 mM glutamine. The Seahorse plates were equilibrated in a non-CO2 incubator for an hour prior to the assay. The Seahorse ATP rate and cell energy phenotype assays were run according to manufacturer's instruction and all reagents for the Seahorse assays were sourced from Agilent Technologies. Wave software (Version 2.6.1) was used to export Seahorse data directly as means±standard deviation (SD).
Seahorse assays measures ECAR as an index of glycolytic flux, OCR as an index of oxidative phosphorylation and PER as an index of monocarboxylate transporter function in live cells, and are used to assess for metabolic reprogramming. […] (FIGS. 3a-c)
(§3) Preparation of ultra-high molecular weight polyethylene particles are described in Example 1 above. The bioenergetics measurements, Seahorse assay, crystal violet assay, and cytokine and chemokine assays were conducted as described in Example 1. Inhibitors rotenone, metformin, oligomycin, and antimycin A were obtained from MilliporeSigma. The reagents were reconstituted in complete medium (described above).

MEFs [5] = assay: Total ATP levels in lysed MEFs (ATP/ADP kit); conditions: PE-exposed MEFs with inhibitor of mitochondrial respiration
Protocol: (§4) Bioluminescence was measured using an IVIS Spectrum in vivo imaging system (PerkinElmer) after addition of 150 μg/mL of D-luciferin (PerkinElmer). Living Image (Version 4.5.2, PerkinElmer) was used for acquiring bioluminescence on the IVIS Spectrum. Standard ATP/ADP kits (Sigma-Aldrich) containing D-luciferin, luciferase, and cell lysis buffer were used according to manufacturer's instructions. Luminescence at integration time of 1,000 ms was obtained using the SpectraMax M3 Spectrophotometer (Molecular Devices) and SoftMax Pro software (ver. 7.0.2).
as §1

BMDMs [6] = assay: Bioenergetic (ATP) levels in BMDMs; conditions: PE-exposed BMDMs with inhibitor of mitochondrial respiration
Protocol: as §4, §1, §3

macrophages [7] = assay: mitoSOX Red staining for mitochondrial ROS; conditions: added to PE-exposed macrophages, compared to macrophages exposed to only PE
Description: To test whether increased OCR at complex I (FIG. 8c) fueled ROS production in the mitochondrion, macrophages were stained with mitoSOX Red. Exposure to LPS or PE particles increased mitochondrial reactive oxygen species (ROS) relative to untreated macrophages. Addition of metformin decreased mitochondrial ROS compared to macrophages exposed to only PE. Mitochondrial membrane potential is critical for reverse electron transport (RET) at complex I, and subsequent generation of mitochondrial ROS.

macrophages [8] = assay: TMRM staining for mitochondrial membrane potential; conditions: metformin added to exposed cells
[9] = 1 mM inhibitor, BMDMs exposed to ultra-high molecular weight PE particles
[10] = metformin, BMDMs treated with PE

Q: Which cell viability (MEFs [1]) does the source give for `O=CC[C@@H](O)[C@H](O)[C@H](O)CO` [2DG, 2-deoxyglucose] here?
A: Its cell viability is “did not lower”.

Q: What about the cell viability (BMDMs [2]) of the same compound?
A: The cell viability was “did not lower”.

Q: What about the IL-4 (BMDMs [3]; [9]) of the same compound?
A: The IL-4 was “increased”.

Q: What about the “expression of IL-1β” value (BMDMs [3]; [9]) of the same compound?
A: The value was “decreased”.

Q: What about the “expression of IL-6” value (BMDMs [3]; [9]) of the same compound?
A: Its value is “decreased”.

Q: And the “expression of MCP-1” value (BMDMs [3]; [9])?
A: The value was “decreased”.

Q: What about the “expression of TNF-α” value (BMDMs [3]; [9]) of the same compound?
A: Its value is “decreased”.

Q: Which results are given for `O=C(C=Cc1cccnc1)c1ccncc1` [3PO, 3-(3-pyridinyl)-1-(4-pyridinyl)-2-propen-1-one]?
A: cell viability (MEFs [1]): did not lower; cell viability (BMDMs [2]): did not lower; IL-4 (BMDMs [3]; [9]): increased; expression of IL-1β (BMDMs [3]; [9]): decreased; expression of IL-6 (BMDMs [3]; [9]): decreased; expression of MCP-1 (BMDMs [3]; [9]): decreased; expression of TNF-α (BMDMs [3]; [9]): decreased

Q: How did the IL-4 (BMDMs [3]; [9]) turn out when `NOCC(=O)O` [aminooxyacetic acid] was run?
A: Its IL-4 is “increased”.

Q: What about the IL-10 levels (BMDMs [3]; [9]) of the same compound?
A: Its IL-10 levels is “increased”.

Q: What about the “expression of IL-1β” value (BMDMs [3]; [9]) of the same compound?
A: Its value is “decreased”.

Q: What about the “expression of IL-6” value (BMDMs [3]; [9]) of the same compound?
A: Its value is “decreased”.

Q: What about the “expression of MCP-1” value (BMDMs [3]; [9]) of the same compound?
A: The value was “decreased”.

Q: And the “expression of TNF-α” value (BMDMs [3]; [9])?
A: Its value is “decreased”.

Q: Which ECAR (BMDMs [4]) does the source give for `CN(C)C(=N)N=C(N)N` [metformin] here?
A: The ECAR was “reduced”.

Q: What about the OCR (BMDMs [4]) of the same compound?
A: The OCR was “reduced”.

Q: What about the PER (BMDMs [4]) of the same compound?
A: The PER was “reduced”.

Q: And the “ATP levels in PE-exposed cells” value (MEFs [5])?
A: Its value is “did not impact”.

Q: What about the “ATP levels in PE-exposed cells” value (BMDMs [6]) of the same compound?
A: The value was “did not impact”.

Q: And the IL-1β (BMDMs [3]; [10])?
A: Its IL-1β is “decreases”.

Q: And the IL-4 (BMDMs [3]; [10])?
A: The IL-4 was “did not increase”.

Q: What about the IL-6 (BMDMs [3]; [10]) of the same compound?
A: Its IL-6 is “decreases”.

Q: And the IL-10 (BMDMs [3]; [10])?
A: The IL-10 was “did not increase”.

Q: What about the MCP-1 (BMDMs [3]; [10]) of the same compound?
A: The MCP-1 was “decreases”.

Q: And the TNF-α expression (BMDMs [3]; [10])?
A: Its TNF-α expression is “not mitigated”.

Q: And the “mitochondrial ROS” value (macrophages [7])?
A: Its value is “decreased”.

Q: And the “elevated mitochondrial membrane potential” value (macrophages [8])?
A: The value was “decreases”.

Q: Which OCR (BMDMs [4]) does the source give for `CC[C@H]1/C=C/C=C/C[C@@H](C)[C@H](O)[C@@](C)(O)C(=O)[C@@H](C)[C@H](O)[C@@H](C)C(=O)[C@@H](C)[C@H](O)[C@@H](C)/C=C/C(=O)O[C@@H]2[C@H](C)[C@H](CC1)O[C@]1(CC[C@H](C)[C@H](C[C@@H](C)O)O1)[C@H]2C` [oligomycin] here?
A: Its OCR is “affected”.

Q: What about the “ATP levels in PE-exposed cells” value (MEFs [5]) of the same compound?
A: Its value is “did not impact”.

Q: And the “ATP levels in PE-exposed cells” value (BMDMs [6])?
A: The value was “did not impact”.

Q: Which results are given for `C=C(C)[C@H]1Cc2c(ccc3c2O[C@@H]2COc4cc(OC)c(OC)cc4[C@@H]2C3=O)O1` [rotenone]?
A: ECAR (BMDMs [4]): did not impact; OCR (BMDMs [4]): decrease; PER (BMDMs [4]): did not impact; ATP levels in PE-exposed cells (MEFs [5]): did not impact; ATP levels in PE-exposed cells (BMDMs [6]): did not impact
